Experimental data: patent publication EP4494656A1 (priority 2023, dated 2025)
Numbered stars: 1 amine (or outer) side, 2 acyl side, 3 side chain; on linkers, the order of the positions; unused ones are H or OH. Bridge positions count the residues as written; N and C are the ends. Square brackets hold non-standard residues; d marks the D form. Peptide text beside a SMILES is read from it. * marks the point of attachment. Adda = CO[C@@H](Cc1ccccc1)[C@@H](C)/C=C(C)/C=C/[C@H](N[*:1])[C@H](C)C(=O)[*:2]; dAsp(3S-Me) = C[C@H](C(=O)[*:3])[C@@H](N[*:1])C(=O)[*:2]; d(γGlu) = O=C(O)[C@@H](CCC(=O)[*:2])N[*:1]; NMeDha = C=C(NC)C(=O)O; Propargyl = C#CC*

How the values were obtained:
OATP1B1 = test: in vitro; conditions: human
OATP1B3 = test: in vitro; conditions: human
[1] = target: protein phosphatase-1 catalytic subunit (a-Isoform from rabbit, Sigma-Aldrich) (Oryctolagus cuniculus, UniProt P62139)
protein phosphatase-1 catalytic subunit (a-Isoform from rabbit, Sigma-Aldrich), sequence (P62139 whole entry, looked up, canonical isoform): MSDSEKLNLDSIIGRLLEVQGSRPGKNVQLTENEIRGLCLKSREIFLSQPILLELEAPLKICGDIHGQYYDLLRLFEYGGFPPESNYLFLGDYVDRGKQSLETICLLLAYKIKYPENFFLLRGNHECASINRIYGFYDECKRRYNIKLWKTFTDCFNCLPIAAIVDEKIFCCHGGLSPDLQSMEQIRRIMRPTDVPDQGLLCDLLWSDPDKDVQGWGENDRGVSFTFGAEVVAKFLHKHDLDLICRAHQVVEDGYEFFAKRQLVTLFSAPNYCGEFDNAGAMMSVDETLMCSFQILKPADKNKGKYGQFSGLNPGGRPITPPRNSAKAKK

[2] = target: type 1 protein phosphatase; conditions: cited from earlier work
[3] = target: type 2A protein phosphatase; conditions: cited from earlier work

## C#CCOc1ccc(C[C@@H]2NC(=O)[C@@H](C)NC(=O)C(=C)N(C)C(=O)CC[C@H](C(=O)O)NC(=O)[C@@H](C)[C@H](/C=C/C(C)=C/[C@H](C)[C@H](Cc3ccccc3)OC)NC(=O)[C@H](CCCNC(=N)N)NC(=O)[C@@H](C)[C@H](C(=O)O)NC2=O)cc1 [MC-PrgTyr-Arg, cyclo(D-Ala-PrgTyr-D-MeAsp-Arg-Adda-D-Glu-Mdha), reference compound] (R[Adda][d(γGlu)][NMeDha][dA]Y(Propargyl)[dAsp(3S-Me)]-OH; lactam N-7)
OATP1B1
  IC50: 82.2 ± 4.5 nM
OATP1B3
  IC50: 40.4 ± 36.6 nM

## C=C1C(=O)N[C@H](C)C(=O)N[C@@H](Cc2ccc(OCc3cn(CC(=O)N4CCN(C(=O)Cn5cc(COc6ccc(C[C@@H]7NC(=O)[C@@H](C)NC(=O)C(=C)N(C)C(=O)CC[C@H](C(=O)O)NC(=O)[C@@H](C)[C@H](/C=C/C(C)=C/[C@H](C)[C@H](Cc8ccccc8)OC)NC(=O)[C@H](CCCNC(=N)N)NC(=O)[C@@H](C)[C@H](C(=O)O)NC7=O)cc6)nn5)CC4)nn3)cc2)C(=O)N[C@@H](C(=O)O)[C@H](C)C(=O)N[C@@H](CCCNC(=N)N)C(=O)N[C@@H](/C=C/C(C)=C/[C@H](C)[C@H](Cc2ccccc2)OC)[C@H](C)C(=O)N[C@@H](C(=O)O)CCC(=O)N1C [MC-PrgTyr-Arg-Dimer-1]
HEK293 OATP1B1+
  increase of IC50_OATP1B1 compared to the corresponding MC-PrgTyr-Arg monomer: 24 fold
  increase of IC50_OATP1B1 in comparison to MC-LR: more than 116 fold
HEK293 OATP1B3+
  increase of IC50_OATP1B3 compared to the MC-PrgTyr-Arg monomer: 26 fold
  increase of IC50_OATP1B3 in comparison to MC-LR: 134 fold
[1]
  lower IC50_PPI compared to the IC50_PPI of the MC-LR reference cytotoxin: about 10 fold
  lower IC50_PPI compared to the IC50_PPI of the corresponding MC-PrgTyr-Arg monomer: more than 20 fold
OATP1B1
  IC50: 2000 ± 711 nM
OATP1B3
  IC50: 1060 ± 302 nM

## C=C1C(=O)N[C@H](C)C(=O)N[C@@H](CC(C)C)C(=O)N[C@@H](C(=O)O)[C@H](C)C(=O)N[C@@H](CCCNC(=N)N)C(=O)N[C@@H](/C=C/C(C)=C/[C@H](C)[C@H](Cc2ccccc2)OC)[C@H](C)C(=O)N[C@@H](C(=O)O)CCC(=O)N1C [MC-LR, microcystin-LR, reference compound] (R[Adda][d(γGlu)][NMeDha][dA]L[dAsp(3S-Me)]-OH; lactam N-7)
HEK293 OATP1B1+
  Ratio of IC50_OATP1B1/ IC50_PPI: 6.3
HEK293 OATP1B1+; read-out: IC50_OATP1B1 ± SE
  IC50: 17.1 ± 2.1 nM
HEK293 OATP1B3+
  Ratio of IC50_OATP1B3/ IC50_PPI: 2.9
HEK293 OATP1B3+; read-out: IC50_OATP1B3 ± SE
  IC50: 7.9 ± 1.7 nM
[2]
  IC50: 0.03 nM
[3]
  IC50: 0.04 nM

## C=C1C(=O)N[C@H](C)C(=O)N[C@@H](Cc2ccc(OCc3cn(CC(=O)N4CCN(C(=O)[C@H](CCCCN)n5cc(COc6ccc(C[C@@H]7NC(=O)[C@@H](C)NC(=O)C(=C)N(C)C(=O)CC[C@H](C(=O)O)NC(=O)[C@@H](C)[C@H](/C=C/C(C)=C/[C@H](C)[C@H](Cc8ccccc8)OC)NC(=O)[C@H](CCCNC(=N)N)NC(=O)[C@@H](C)[C@H](C(=O)O)NC7=O)cc6)nn5)CC4)nn3)cc2)C(=O)N[C@@H](C(=O)O)[C@H](C)C(=O)N[C@@H](CCCNC(=N)N)C(=O)N[C@@H](/C=C/C(C)=C/[C@H](C)[C@H](Cc2ccccc2)OC)[C@H](C)C(=O)N[C@@H](C(=O)O)CCC(=O)N1C [MC-PrgTyr-Arg-Dimer-2]
HEK293 OATP1B1+
  increase of IC50_OATP1B1 compared to the corresponding MC-PrgTyr-Arg monomer: more than 36 fold
  increase of IC50_OATP1B1 in comparison to MC-LR: more than 175 fold
HEK293 OATP1B3+
  increase of IC50_OATP1B3 compared to the MC-PrgTyr-Arg monomer: 45 fold
  increase of IC50_OATP1B3 in comparison to MC-LR: 234 fold
[1]
  lower IC50_PPI compared to the IC50_PPI of the MC-LR reference cytotoxin: about 16 fold
  lower IC50_PPI compared to the IC50_PPI of the corresponding MC-PrgTyr-Arg monomer: more than 50 fold
OATP1B1
  IC50: > 3000 nM
OATP1B3
  IC50: 1850 ± 309 nM
